Reference: US10226478B2, “Dosage regimen for sapacitabine and decitabine in combination for treating acute myeloid leukemia” (Cyclacel Limited, priority 2011, dated 2019)
Read-outs that look alike come from different tables or passages of the source.

Tests used:
HL60 cells [1] = test: 72 h single agent cytotoxicity, alamar blue assay; format: cell-based; settings: Homo sapiens
Experimental: (§1) In order to complete the combination studies, the cytotoxic effects of individual compounds were determined.
(§2) A dilution series for each drug was prepared in medium. Two hours after seeding, an equal volume of each compound was added at twice the desired concentration and incubated for 72 hours. All treatments were performed in triplicate. At the end of the incubation, a 20% stock of alamar blue (Roche, Lewes, UK) was prepared in media, and an equal volume was added to each well and incubated for three hours. Absorbance was read at 544-595 nm and data was analysed (Excel Fit v4.0) to determine the IC50 (concentration of compound that inhibited cell growth by 50%) for each compound.

HL60 cells [2] = test: Annexin V staining (apoptosis, flow cytometry); settings: single agents, azacitidine 72 and 96 hours, CNDAC 48 or 72 hours
Experimental: Single agent treatments were also performed as controls. After incubation cells were centrifuged at 500 g for 5 min, washed twice in PBS and once in annexin buffer (10 mM Hepes pH 7.4, 2.5 mM CaCl2, and 140 mM NaCl). Cells were resuspended at 1×10^6/ml and 100 μl was transferred to a 5 ml tube prior to incubation for 10 min in the dark at room temperature with 5 μl of annexin V-FITC stain (Beckton Dickinson) and 10 μl of propidium iodide [50 mg/ml]. Annexin buffer (1 ml) was added and the cells were analysed by flow cytometry. Annexin V positive cells (apoptotic) were designated on the basis of green fluorescence and propidium iodide (dead) positive cells were designated on the basis of red fluorescence.

[3] = system: cell line that is resistant to cytarabine; settings: cited from earlier work
MV4-11 cells = test: 72 h single agent cytotoxicity, alamar blue assay; format: cell-based; settings: Homo sapiens
Experimental: as §1, §2

SMILES: Nc1ncn([C@@H]2O[C@H](CO)[C@@H](O)[C@H]2O)c(=O)n1 [azacitidine, 4-amino-1-β-D-ribofuranosyl-s-triazin-2(1H)-one]
- IC50 (HL60 cells [1]; HL-60, HL60 cells, 72 hour, half of the IC50, read-out: 0.5×IC50): 128 nM
- IC50 (HL60 cells [1]; HL-60 cells, half of the IC50, read-out: 0.5×IC50): 130 nM
- annexin V, proportion of apoptotic cells (HL60 cells [2]): small increase in the proportion of apoptotic cells

SMILES: Nc1ccn([C@@H]2O[C@H](CO)[C@@H](O)[C@@H]2O)c(=O)n1 [cytarabine]
- IC50 ([3]; after 5-azacitidine (upregulation of dCK)): 550 nM
- IC50 ([3]; before 5-azacitidine): 12500 nM

SMILES: N#C[C@H]1[C@H](O)[C@@H](CO)O[C@H]1n1ccc(N)nc1=O [CNDAC, 1-(2-C-Cyano-2-deoxy-β-D-arabino-pentafuranosyl)-cytosine]
- IC50 (MV4-11 cells): 460 nM
- IC50 (HL60 cells [1]; HL-60, HL60 cells, 72 hour, read-out: 1×IC50): 133 nM
- IC50 (HL60 cells [1]; HL-60 cells, read-out: IC50): 130 nM
- annexin V, proportion of apoptotic cells (HL60 cells [2]): little effect
